This test relates to human fibroblasts. Description: Cell proliferation of fibroblasts. The format is cell-based. The note with it: Fibroblast, 72 hours, CYQUANT, read-out: IC50 cell proliferation of fibroblasts. How it is done:
Fibroblasts at 70-90% confluency are trypsinized, replated at 600 cells/well in media in 96-well plates and allowed to attachment overnight. […] Each drug concentration is tested in triplicate wells. Plates containing fibroblasts and drug substance are incubated at 37° C. for 72 hours.
To terminate the assay, the media is removed by gentle aspiration. A 1/400 dilution of CYQUANT 400×GR™ dye indicator (Molecular Probes; Eugene, Oreg.) is added to 1× Cell Lysis buffer, and 200 μL of the mixture is added to the wells of the plate. Plates are incubated at room temperature, protected from light for 3-5 minutes.

The structures appear in SMILES notation. Where a name gives a salt, the structure may show the parent alone. Numbered stars: 1 amine (or outer) side, 2 acyl side, 3 side chain; on linkers, the order of the positions; unused ones are H or OH. Bridge positions count the residues as written; N and C are the ends. Square brackets hold non-standard residues; d marks the D form. Peptide text beside a SMILES is read from it. I, II: the chains in the order shown. Actinocin(9to1) = Cc1c2oc3c(C)ccc(C(=O)[*:1])c3nc-2c(C(=O)[*:2])c(N)c1=O; NMeV = CN[C@H](C(=O)O)C(C)C; Sar = CNCC(=O)O

The values below come from patent US20090226500A1, “SUTURES AND ANTI-SCARRING AGENTS” (Angiotech Pharmaceuticals, Inc, priority 2006, published 2009).

On to `Nc1ncn([C@@H]2O[C@H](CO)[C@@H](O)[C@H]2O)c(=O)n1` [5-Azacytidine], for which the IC50 lay within 600 to 1200 nM.
Next, `O=c1cnn([C@@H]2O[C@H](CO)C(O)[C@@H]2O)c(=O)[nH]1` (stereo partly shown) [6-Azauridine, 6-Azauracil riboside]: 1200 to 10000 nM; `CC[C@@]1(O)C[C@H](O[C@H]2C[C@H](N(C)C)[C@H](O[C@H]3C[C@H](O)[C@H](O[C@H]4CCC(=O)[C@H](C)O4)[C@H](C)O3)[C@H](C)O2)c2c(cc3c(c2O)C(=O)c2c(O)cccc2C3=O)[C@H]1C(=O)OC` [Aclarubicin]: 0.1 to 10 nM; `Cc1c2oc3c(C)ccc(C(=O)N[C@@H]4C(=O)N[C@H](C(C)C)C(=O)N5CCC[C@H]5C(=O)N(C)CC(=O)N(C)[C@@H](C(C)C)C(=O)O[C@@H]4C)c3nc-2c(C(=O)N[C@@H]2C(=O)N[C@H](C(C)C)C(=O)N3CCC[C@H]3C(=O)N(C)CC(=O)N(C)[C@@H](C(C)C)C(=O)O[C@@H]2C)c(N)c1=O` [Actinomycin D] (I: T[dV]P[Sar][NMeV] / II: T[dV]P[Sar][NMeV]; ester I:1-I:C, II:1-II:C; linker I:N-II:N via Actinocin(9to1)): 0.1 to 10 nM.
In the case of `CCCSc1ccc2nc(NC(=O)OC)[nH]c2c1` [Albendazole], the IC50 is 100 to 600 nM.
As to `S=C(S)N1CCCC1` [Ammonium pyrrolidinedithiocarbamate, 1-Pyrrolidinecarbodithioic acid ammonium salt], the IC50 was 100 to 600 nM.
As for `N=c1ccn2c(n1)O[C@H]1[C@H](O)[C@@H](CO)O[C@H]12` [Ancitabine hydrochloride], the figure is 100 to 600 nM.
As for `O=c1cc(-c2ccc(O)cc2)oc2cc(O)cc(O)c12` [Apigenin, 4,5,7-Trihydroxyflavone], the figure is 1200 to 10000 nM; as for `O=C1C(O)=C([C@H]2CC[C@H](c3ccc(Cl)cc3)CC2)C(=O)c2ccccc21` [Atovaquone], 1200 to 10000 nM; as for `Cc1ccc2nc(NCCN)c3ncc(C)n3c2c1` [BMS-345541], 1200 to 10000 nM.
Next, `O=C(OOC(=O)c1ccccc1)c1ccccc1` [Benzoyl peroxide]: 1200 to 10000 nM; `C=C(C)[C@@H]1CC[C@]2(C(=O)O)CC[C@]3(C)[C@H](CC[C@@H]4[C@@]5(C)CC[C@H](O)C(C)(C)[C@@H]5CC[C@]43C)[C@@H]12` [Betulinic acid]: 1200 to 10000 nM.
As to `Clc1ccc(CCC(Cn2ccnc2)Sc2c(Cl)cccc2Cl)cc1` (stereo not shown) [Butoconazole Nitrate], the IC50 was 1200 to 10000 nM.
As for `O=C1NC(=O)c2cc(Nc3ccc(F)cc3)c(Nc3ccc(F)cc3)cc21` [CGP53353], the figure is 1200 to 10000 nM.
Turning to `CCOc1nc2cccc(C(=O)O)c2n1Cc1ccc(-c2ccccc2-c2nnn[nH]2)cc1` [Candesartan], the IC50 lay in the range of 10 to 100 nM.
On to `O=NN(CCCl)C(=O)NCCCl` [Carmustine], for which the IC50 lay within 1200 to 10000 nM.
Next, `Cc1ccc(-c2cc(C(F)(F)F)nn2-c2ccc(S(N)(=O)=O)cc2)cc1` [Celecoxib]: 100 to 600 nM.
For the molecule `C/C=C(\C)C(=O)N[C@@H](c1ccccc1)[C@@H](O)C(=O)O[C@H]1C[C@@]2(O)[C@@H](OC(=O)c3ccccc3)[C@@H]3[C@]4(OC(C)=O)CO[C@@H]4C[C@H](O)[C@@]3(C)C(=O)[C@H](OC(C)=O)C(=C1C)C2(C)C` [Cephalomannine], the IC50 was 10 to 100 nM.
As to `COc1ccc2cc1Oc1ccc(cc1)C[C@H]1c3c(cc4c(c3Oc3cc5c(cc3OC)CCN(C)[C@@H]5C2)OCO4)CCN1C` [Cepharanthine], the IC50 fell in the range of 600 to 1200 nM.
`COCc1c(C(C)C)nc(C(C)C)c(/C=C/[C@@H](O)C[C@@H](O)CC(=O)O)c1-c1ccc(F)cc1` [Cerivastatin Na]: the IC50 fell in the range of 1200 to 10000 nM.
`CC1(COc2ccc(CC3SC(=O)NC3=O)cc2)CCCCC1` (stereo not shown) [Ciglitazone]: the IC50 was 600 to 1200 nM.
Turning to `CC[C@H]1OC(=O)[C@H](C)[C@@H](O[C@H]2C[C@@](C)(OC)[C@@H](O)[C@H](C)O2)[C@H](C)[C@@H](O[C@@H]2O[C@H](C)C[C@H](N(C)C)[C@H]2O)[C@](C)(OC)C[C@@H](C)C(=O)[C@H](C)[C@@H](O)[C@]1(C)O` [Clarithromycin, 6-O-Methylerythromycin], the IC50 was 100 to 600 nM.
Next, `O=C1CCc2cc(OCCCCc3nnnn3C3CCCCC3)ccc2N1` [Cliostazol]: 1200 to 10000 nM; `CCOC(=O)COc1ccc2c(C)c(CCN(CC)CC)c(=O)oc2c1Cl` [Cloricromene]: 1200 to 10000 nM.
As for `COc1cc(/C=C/C(=O)CC(=O)/C=C/c2ccc(O)c(OC)c2)ccc1O` [Curcumin, Diferuloylmethane], the IC50 lay within 1200 to 10000 nM.
As for `CN(C)/N=N/c1[nH]cnc1C(N)=O` [Dacarbazine], the figure is 10 to 100 nM; as for `Nc1ncn([C@H]2C[C@H](O)[C@@H](CO)O2)c(=O)n1` [Decitabine, 5-Aza-2-deoxycytidine], 100 to 600 nM; as for `O=c1oc2ccccc2c(O)c1Cc1c(O)c2ccccc2oc1=O` [Dicumarol, 3,3-Methylenebis(4-hydroxycoumarin)], 1200 to 10000 nM.
In the case of `CC(=O)OCC(=O)[C@@]1(OC(C)=O)[C@@H](C)C[C@H]2[C@@H]3C[C@H](F)C4=CC(=O)C=C[C@]4(C)[C@@]3(F)[C@@H](O)C[C@@]21C` [Diflorasone diacetate], the IC50 lay in the range of 1200 to 10000 nM.
Consider `Cc1cc(O)c2c(c1)C(=O)c1cc(O)cc(O)c1C2=O` [Emodin, 6-Methyl-1,3,8-trihydroxyanthraquinone], for which the IC50 lay in the range of 1200 to 10000 nM.
As to `CCOC(=O)[C@H](CCc1ccccc1)N[C@@H](C)C(=O)N1CCC[C@H]1C(=O)O` [Enalapril], the IC50 lay in the range of 1200 to 10000 nM.
As to `COC(=O)C=Cc1cc(O)ccc1O` [Erbstatin analog, Methyl 2,5-dihydroxycinnamate], the IC50 was in the range of 1200 to 10000 nM.
As for `O=C(O)CSCC(=O)NC1CCSC1=O` (stereo not shown) [Erdosteine], the figure is 1200 to 10000 nM.
Next, `NC(N)=Nc1nc(CSCCC(N)=NS(N)(=O)=O)cs1` [Famotidine]: 100 to 600 nM; `O=S(=O)(c1cccc2cnccc12)N1CCCNCC1` [Fasudil]: 600 to 1200 nM; `Nc1nc(F)nc2c1ncn2[C@@H]1O[C@H](COP(=O)(O)O)[C@@H](O)[C@@H]1O` [Fludarabine Phosphate]: 1200 to 10000 nM.
On to `CC(C)n1c(/C=C/C(O)CC(O)CC(=O)O)c(-c2ccc(F)cc2)c2ccccc21` (stereo not shown) [Fluvastatin], for which the IC50 lay in the range of 100 to 600 nM.
As for `COc1ccc(-c2coc3cc(O)ccc3c2=O)cc1` [Formononetin, 7-Hydroxy-4-methoxyisoflavone], the figure is 100 to 600 nM.
With `Cc1ccc(C)c(OCCCC(C)(C)C(=O)O)c1` [Gemfibrozil], the IC50 was in the range of 10 to 100 nM.
Next, `CCCCCCC(C)(C)c1cc(O)c2c(c1)OC(C)(C)[C@@H]1CC=C(CO)C[C@@H]21` [HU-210]: 1200 to 10000 nM; `CCC(=O)O[C@]1(C(=O)CCl)[C@@H](C)C[C@H]2[C@@H]3C[C@H](F)C4=CC(=O)C=C[C@]4(C)[C@@]3(F)[C@@H](O)C[C@@]21C` [Halobetasol Propionate]: 1200 to 10000 nM; `COc1ccc([C@@H]2CC(=O)c3c(O)cc(O)cc3O2)cc1O` [Hesperetin]: 0.1 to 10 nM.
Next, `COC(=O)C[C@](O)(CCCC(C)(C)O)C(=O)O[C@@H]1C(OC)=C[C@]23CCCN2CCc2cc4c(cc2[C@H]13)OCO4` [Homoharringtonine]: 10 to 100 nM.
Next, `NNc1nncc2ccccc12` [Hydralazine hydrochloride]: 1200 to 10000 nM.
Turning to `O=C(Nc1cc(C(F)(F)F)cc(C(F)(F)F)c1)c1cc(Cl)ccc1O` [IMD-0354], the IC50 fell in the range of 100 to 600 nM.
Consider `O=c1[nH]cnc2c1ncn2[C@@H]1O[C@H](CO)[C@@H](O)[C@H]1O` [INO-1001], for which the IC50 is 1200 to 10000 nM.
As for `COC1=C(OC)C(=O)C(CCCCCCCCCCO)=C(C)C1=O` [Idebenone], the figure is 1200 to 10000 nM.
Next, `c1c[nH]cn1` [Imidazole]: 1200 to 10000 nM.
Next, `CCc1c2c(nc3ccc(OC(=O)N4CCC(N5CCCCC5)CC4)cc13)-c1cc3c(c(=O)n1C2)COC(=O)[C@]3(O)CC` [Irinotecan Hydrochloride Trihydrate]: 600 to 1200 nM; `Nc1nc(N)nc(-c2cc(Cl)ccc2Cl)n1` [Irsogladine]: 1200 to 10000 nM.
With `CO[C@@H]1[C@@H](O[C@@H]2O[C@H](C)[C@@H](O[C@H]3C[C@@](C)(O)[C@@H](OC(=O)CC(C)C)[C@H](C)O3)[C@H](N(C)C)[C@H]2O)[C@@H](CC=O)C[C@@H](C)[C@@H](O)/C=C/C=C/C[C@@H](C)OC(=O)C[C@H]1OC(C)=O` [Josamycin], the IC50 fell in the range of 0.1 to 10 nM.
As for `O=c1c(O)c(-c2ccc(O)cc2)oc2cc(O)cc(O)c12` [Kaempferol], the figure is 600 to 1200 nM.
As for `CN(C)C[C@@H]1CCn2cc(c3ccccc32)C2=C(C(=O)NC2=O)c2cn(c3ccccc23)CCO1` [LY333531, Ruboxistaurin], the figure is 1200 to 10000 nM; as for `CCCCc1nc(Cl)c(CO)n1Cc1ccc(-c2ccccc2-c2nn[nH]n2)cc1` [Losartan potassium], 1200 to 10000 nM; as for `NC(Cc1ccc(N(CCCl)CCCl)cc1)C(=O)O` (stereo not shown) [Melphalan], 1200 to 10000 nM.
Next, `CCC(=O)O[C@@H]1CC(=O)O[C@H](C)C/C=C/C=C/[C@H](O)[C@H](C)C[C@H](CC=O)[C@H](O[C@@H]2O[C@H](C)[C@@H](O[C@H]3C[C@@](C)(O)[C@@H](OC(=O)CC)[C@H](C)O3)[C@H](N(C)C)[C@H]2O)[C@H]1OC` [Midecamycin, Leucomycin V 3,4B-dipropionate]: 1200 to 10000 nM; `O[C@@H]([C@H](O)[C@H](O)CBr)[C@H](O)CBr` [Mitobronitol]: 100 to 600 nM; `NC(=O)c1ncn([C@@H]2O[C@H](CO)[C@@H](O)[C@H]2O)c1O` [Mizoribine]: 10 to 100 nM.
`O=c1c(O)c(-c2cc(O)c(O)c(O)c2)oc2cc(O)cc(O)c12` [Myricetin]: the IC50 lay in the range of 600 to 1200 nM.
Next, `CS(=O)(=O)Nc1ccc([N+](=O)[O-])cc1OC1CCCCC1` [NS-398]: 1200 to 10000 nM.
Next, `CNCCC=C1c2ccccc2CCc2ccccc21` [Nortriptyline Hydrochloride]: 0.1 to 10 nM.
